# In US6048874A, “Parenteral metolazone formulations” (priority 1999, dated 2000):
# Where “and” joins values, the source holds several entries; their conditions need not be identical. Equal values may be shown once.
# How the values were obtained:
# [1] = cited from earlier work
# [2] = diuretic; cited from earlier work
# [3] = cited from earlier work; remark: listed apart in the source
# [4] = Apparent equilibrium solubility redetermined, UV analysis; type: physicochemical; conditions: 65% w/v propylene glycol/15% w/v ethyl alcohol/water, UV 235 nm
# Method: (§1) The apparent equilibrium solubility was redetermined more accurately as follows. A 300 g quantity of ethyl alcohol (95% v/v in water) and 1300 g of propylene glycol were added to a 2000 ml volumetric flask and mixed well. Next, purified water was added q.s. to 2000 ml. This is the solvent.
# (§2) Nine 30 ml amber bottles were filled with 25 ml of the solvent and 400 mg of metolazone and mixed on a wrist arm shaker for 24 hours (3 bottles), 48 hours (3 bottles), and 72 hours (3 bottles). The samples were filtered through a membrane filter (Whatman 25 mm 601X Nylon Filter (0.45 μm)). The concentration of the samples was determined by HPLC and by UV analysis.
# The sample concentrations were measured by the UV absorbance at 235 nm using an UV/VIS spectrophotometer (HP 8453, available from Hewlett-Packard, Palo Alto, Calif.).
# [5] = Apparent equilibrium solubility, spectrophotometric assay at 346 nm; type: physicochemical; conditions: aqueous propylene glycol/ethanol, organic solvent or mixture
# Method: The apparent equilibrium solubility of metolazone in an aqueous solvent of 65% w/v propylene glycol/15% w/v ethyl alcohol (95% v/v in water) was determined as described below.
# A 250 mg quantity of metolazone was equilibrated with 20 ml of a solvent consisting of 65% w/v propylene glycol, 15% w/v ethyl alcohol (95% v/v in water), and water for 24 hours at room temperature on a wrist action shaker. […] After equilibration, the solution was filtered through a 0.45 μm filter, diluted, and assayed spectrophotometrically at 346 nm.
# [6] = Apparent equilibrium solubility redetermined, HPLC analysis; type: physicochemical; conditions: 65% w/v propylene glycol/15% w/v ethyl alcohol/water
# Method: as §1, §2
# The sample concentrations were analyzed by an HPLC system (HP 1100, available from Hewlett-Packard, Palo Alto, Calif.) equipped with a C18 column and an UV detector set at 230 nm. The mobile phase consisted of water and methanol at a ratio of 62/38 (v/v) and was used at a flow rate of 1.5 ml/minute.
# [7] = cited from earlier work; remark: listed apart in the source
compound,measurement,setting,value
"Cc1ccccc1N1C(=O)c2cc(S(N)(=O)=O)c(Cl)cc2NC1C (stereo not shown) [Metolazone, 7-chloro-1,2,3,4-tetrahydro-2-methyl-3-(2-methylphenyl)-4-oxo-6-quinazolinesulfonamide]",solubility in water,[1],about 0.02 mg/ml
same,"potency, on a weight basis, vs quinethazone or hydrochlorothiazide",[2],greater potency
same,pH of aqueous solution sufficient to solubilize metolazone,"[3]; aqueous solution, alkali hydroxides",about 11
same,chemical stability at high pH,[3]; pH of about 11,chemically unstable
same,solubility thermodynamic at 24 h,"[4]; aqueous propylene glycol/ethanol, organic solvent or mixture, shaken 24 hrs, read-out: Concentration of Metolazone, UV (apparent equilibrium solubility)",8090 µg/mL
same,solubility thermodynamic at 48 h,"[4]; aqueous propylene glycol/ethanol, organic solvent or mixture, shaken 48 hrs, read-out: Concentration of Metolazone, UV (apparent equilibrium solubility)",7580 µg/mL
same,solubility thermodynamic at 72 h,"[4]; aqueous propylene glycol/ethanol, organic solvent or mixture, shaken 72 hrs, read-out: Concentration of Metolazone, UV (apparent equilibrium solubility)",7300 µg/mL
same,"Concentration of Metolazone, UV (apparent equilibrium solubility)","[4]; shaken 24 hrs, 1440 min",7540 µg/mL and 7410 µg/mL
same,"Concentration of Metolazone, UV (apparent equilibrium solubility)","[4]; shaken 48 hrs, 2880 min",7560 µg/mL and 7430 µg/mL
same,"Concentration of Metolazone, UV (apparent equilibrium solubility)","[4]; shaken 72 hrs, 4320 min",7310 µg/mL and 7550 µg/mL
same,solubility thermodynamic at 24 h,"[5]; 65% w/v propylene glycol, 15% w/v ethyl alcohol (95% v/v in water), water, 24 hours, room temperature, spectrophotometric 346 nm",8360 µg/mL
same,solubility thermodynamic,"[5]; aqueous 65% w/v propylene glycol, 15% w/v ethyl alcohol, read-out: apparent equilibrium solubility limit",~8000 µg/mL
same,solubility thermodynamic at 24 h,"[6]; aqueous propylene glycol/ethanol, organic solvent or mixture, shaken 24 hrs, read-out: Concentration of Metolazone, HPLC (apparent equilibrium solubility)",7900 µg/mL
same,solubility thermodynamic at 48 h,"[6]; aqueous propylene glycol/ethanol, organic solvent or mixture, shaken 48 hrs, read-out: Concentration of Metolazone, HPLC (apparent equilibrium solubility)",7810 µg/mL
same,solubility thermodynamic at 72 h,"[6]; aqueous propylene glycol/ethanol, organic solvent or mixture, shaken 72 hrs, read-out: Concentration of Metolazone, HPLC (apparent equilibrium solubility)",7610 µg/mL
same,"Concentration of Metolazone, HPLC (apparent equilibrium solubility)","[6]; shaken 24 hrs, 1440 min",7730 µg/mL and 7650 µg/mL
same,"Concentration of Metolazone, HPLC (apparent equilibrium solubility)","[6]; shaken 48 hrs, 2880 min",7680 µg/mL and 7660 µg/mL
same,"Concentration of Metolazone, HPLC (apparent equilibrium solubility)","[6]; shaken 72 hrs, 4320 min",7680 µg/mL and 7910 µg/mL
same,decomposition when exposed to light,[7],decompose when exposed to light
